# Source: ChEMBL document CHEMBL1151010, “A case study of combinatorial libraries: Endothelin receptor antagonist hexapeptides” (Bioorg Med Chem Lett, 1995)
# Square brackets hold non-standard residues; d marks the D form. Peptide text beside a SMILES is read from it. dGly(5-dibenzosuberyl) = N[C@@H](C(=O)O)C1c2ccccc2CCc2ccccc21
# Tests used:
# Endothelin-1 receptor = target: T1, Endothelin-1 receptor (Sus scrofa, UniProt Q29010); test: (§1) Inhibition of endothelin (ET-A) binding to porcine heart membranes; design: species or system Membrane
# T1 sequence (Q29010 whole entry): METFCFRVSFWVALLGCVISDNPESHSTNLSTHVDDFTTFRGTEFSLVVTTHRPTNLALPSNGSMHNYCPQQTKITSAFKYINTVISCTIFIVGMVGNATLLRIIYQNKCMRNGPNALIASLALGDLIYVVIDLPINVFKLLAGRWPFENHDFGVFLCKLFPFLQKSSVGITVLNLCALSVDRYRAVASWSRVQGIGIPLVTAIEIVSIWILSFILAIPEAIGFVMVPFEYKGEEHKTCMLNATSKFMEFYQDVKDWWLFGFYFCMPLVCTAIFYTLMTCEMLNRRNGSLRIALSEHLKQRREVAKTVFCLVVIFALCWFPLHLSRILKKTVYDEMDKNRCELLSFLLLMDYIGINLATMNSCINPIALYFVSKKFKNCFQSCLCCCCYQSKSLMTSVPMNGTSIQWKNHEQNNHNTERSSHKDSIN
# [1] = target: T2, Endothelin-1 receptor (Sus scrofa) (UniProt Q29010); test: as §1; design: concentration or dose not given beside the values; details: Membrane, concentration not given here
# T2 sequence (whole entry): T1 sequence (Q29010 whole entry)
# [2] = target: T2, Endothelin-1 receptor (Sus scrofa); test: as §1; design: concentration or dose not given beside the values; details: Membrane, concentration not given here; remark: listed apart in the source
# [3] = target: T2, Endothelin-1 receptor (Sus scrofa); test: Antagonist activity against ET-A from porcine heart membranes; format: functional, tissue-based; details: concentration not given here
SMILES,IC50 (Endothelin-1 receptor),inhibition [1],inhibition [2],inhibition [3]
CC[C@H](C)[C@H](NC(=O)[C@H](C)NC(=O)[C@H](CC(=O)O)NC(=O)[C@H](CC(C)C)NC(=O)[C@H](NC(C)=O)C1c2ccccc2CCc2ccccc21)C(=O)N[C@@H](Cc1c[nH]c2ccccc12)C(=O)O,30 nM,47%,,
CC[C@H](C)[C@H](NC(=O)[C@H](CC(N)=O)NC(=O)[C@H](CC(=O)O)NC(=O)[C@H](CC(C)C)NC(=O)[C@H](NC(C)=O)C1c2ccccc2CCc2ccccc21)C(=O)N[C@@H](Cc1c[nH]c2ccccc12)C(=O)O,40 nM,41%,,
CC[C@H](C)[C@H](NC(=O)CNC(=O)[C@@H]1CCCN1C(=O)[C@H](CC(C)C)NC(=O)[C@H](NC(C)=O)C1c2ccccc2CCc2ccccc21)C(=O)N[C@@H](Cc1c[nH]c2ccccc12)C(=O)O,,,7%,
CC[C@H](C)[C@H](NC(=O)[C@H](CCSC)NC(=O)[C@H](CC(=O)O)NC(=O)[C@H](CC(C)C)NC(=O)[C@H](NC(C)=O)C1c2ccccc2CCc2ccccc21)C(=O)N[C@@H](Cc1c[nH]c2ccccc12)C(=O)O,40 nM,26%,,
CC[C@H](C)[C@H](NC(=O)CNC(=O)[C@H](Cc1c[nH]cn1)NC(=O)[C@H](CC(C)C)NC(=O)[C@H](NC(C)=O)C1c2ccccc2CCc2ccccc21)C(=O)N[C@@H](Cc1c[nH]c2ccccc12)C(=O)O,,,56%,
CC[C@H](C)[C@H](NC(=O)[C@@H](NC(=O)[C@H](CC(=O)O)NC(=O)[C@H](CC(C)C)NC(=O)[C@H](NC(C)=O)C1c2ccccc2CCc2ccccc21)C1CCCCC1)C(=O)N[C@@H](Cc1c[nH]c2ccccc12)C(=O)O,,,,47%
CC[C@H](C)[C@H](NC(=O)[C@@H](NC(=O)[C@H](CC(=O)O)NC(=O)[C@H](CC(C)C)NC(=O)[C@H](NC(C)=O)C1c2ccccc2CCc2ccccc21)C(C)C)C(=O)N[C@@H](Cc1c[nH]c2ccccc12)C(=O)O,5 nM,70%,,
CC[C@H](C)[C@H](NC(=O)[C@@H](NC(=O)[C@H](CC(=O)O)NC(=O)[C@H](CCC(N)=O)NC(=O)[C@H](NC(C)=O)C1c2ccccc2CCc2ccccc21)C1CCCCC1)C(=O)N[C@@H](Cc1c[nH]c2ccccc12)C(=O)O,,,,49%
CC[C@H](C)[C@H](NC(=O)CNC(=O)[C@H](Cc1ccccc1)NC(=O)[C@H](CC(C)C)NC(=O)[C@H](NC(C)=O)C1c2ccccc2CCc2ccccc21)C(=O)N[C@@H](Cc1c[nH]c2ccccc12)C(=O)O,,,42%,
CC[C@H](C)[C@H](NC(=O)[C@H](Cc1ccccc1)NC(=O)[C@H](CC(=O)O)NC(=O)[C@H](CC(C)C)NC(=O)[C@H](NC(C)=O)C1c2ccccc2CCc2ccccc21)C(=O)N[C@@H](Cc1c[nH]c2ccccc12)C(=O)O (Ac-[dGly(5-dibenzosuberyl)]LDFIW-OH),,12%,,

# The next lines start with the values.
IC50 (Endothelin-1 receptor),inhibition [1],inhibition [2],inhibition [3],SMILES
,,34%,,CC[C@H](C)[C@H](NC(=O)CNC(=O)[C@H](CC(C)C)NC(=O)[C@H](CC(C)C)NC(=O)[C@H](NC(C)=O)C1c2ccccc2CCc2ccccc21)C(=O)N[C@@H](Cc1c[nH]c2ccccc12)C(=O)O
,,62%,,CC[C@H](C)[C@H](NC(=O)CNC(=O)[C@H](C)NC(=O)[C@H](CC(C)C)NC(=O)[C@H](NC(C)=O)C1c2ccccc2CCc2ccccc21)C(=O)N[C@@H](Cc1c[nH]c2ccccc12)C(=O)O
,,27%,,CC[C@H](C)[C@H](NC(=O)CNC(=O)[C@H](CCCN=C(N)N)NC(=O)[C@H](CC(C)C)NC(=O)[C@H](NC(C)=O)C1c2ccccc2CCc2ccccc21)C(=O)N[C@@H](Cc1c[nH]c2ccccc12)C(=O)O
,,61%,,CC[C@H](C)[C@H](NC(=O)CNC(=O)[C@H](CCSC)NC(=O)[C@H](CC(C)C)NC(=O)[C@H](NC(C)=O)C1c2ccccc2CCc2ccccc21)C(=O)N[C@@H](Cc1c[nH]c2ccccc12)C(=O)O
,,65%,,CC(=O)N[C@@H](C(=O)N[C@@H](CC(C)C)C(=O)N[C@@H](CO)C(=O)NCC(=O)N[C@H](C(=O)N[C@@H](Cc1c[nH]c2ccccc12)C(=O)O)C(C)C)C1c2ccccc2CCc2ccccc21
48 nM,,88%,,CC[C@H](C)[C@H](NC(=O)CNC(=O)[C@H](CCC(=O)O)NC(=O)[C@H](CC(C)C)NC(=O)[C@H](NC(C)=O)C1c2ccccc2CCc2ccccc21)C(=O)N[C@@H](Cc1c[nH]c2ccccc12)C(=O)O
,,22%,,CC[C@@H](C)[C@H](NC(=O)[C@H](CC(C)C)NC(=O)[C@H](NC(C)=O)C1c2ccccc2CCc2ccccc21)C(=O)NCC(=O)N[C@H](C(=O)N[C@@H](Cc1c[nH]c2ccccc12)C(=O)O)[C@@H](C)CC
18 nM,41%,93%,,CC[C@H](C)[C@H](NC(=O)CNC(=O)[C@H](CC(=O)O)NC(=O)[C@H](CC(C)C)NC(=O)[C@H](NC(C)=O)C1c2ccccc2CCc2ccccc21)C(=O)N[C@@H](Cc1c[nH]c2ccccc12)C(=O)O
380 nM,,,,CC[C@H](C)[C@H](NC(=O)CNC(=O)[C@H](CO)NC(=O)[C@H](CC(C)C)NC(=O)[C@H](NC(C)=O)C1c2ccccc2CCc2ccccc21)C(=O)N[C@@H](Cc1c[nH]c2ccccc12)C(=O)O
180 nM,,66%,,CC[C@H](C)[C@H](NC(=O)CNC(=O)[C@H](CCC(N)=O)NC(=O)[C@H](CC(C)C)NC(=O)[C@H](NC(C)=O)C1c2ccccc2CCc2ccccc21)C(=O)N[C@@H](Cc1c[nH]c2ccccc12)C(=O)O
350 nM,,,,CC[C@H](C)[C@H](NC(=O)CNC(=O)[C@@H](NC(=O)[C@H](CC(C)C)NC(=O)[C@H](NC(C)=O)C1c2ccccc2CCc2ccccc21)[C@@H](C)O)C(=O)N[C@@H](Cc1c[nH]c2ccccc12)C(=O)O
,,16%,,CC[C@H](C)[C@H](NC(=O)CNC(=O)[C@H](CCCCN)NC(=O)[C@H](CC(C)C)NC(=O)[C@H](NC(C)=O)C1c2ccccc2CCc2ccccc21)C(=O)N[C@@H](Cc1c[nH]c2ccccc12)C(=O)O
150 nM,,41%,,CC[C@H](C)[C@H](NC(=O)CNC(=O)CNC(=O)[C@H](CC(C)C)NC(=O)[C@H](NC(C)=O)C1c2ccccc2CCc2ccccc21)C(=O)N[C@@H](Cc1c[nH]c2ccccc12)C(=O)O
120 nM,,74%,,CC[C@H](C)[C@H](NC(=O)CNC(=O)[C@H](CC(N)=O)NC(=O)[C@H](CC(C)C)NC(=O)[C@H](NC(C)=O)C1c2ccccc2CCc2ccccc21)C(=O)N[C@@H](Cc1c[nH]c2ccccc12)C(=O)O
